The record followed here is patent US20250129104A1, “7H-PYRROLO[2,3-D]PYRIMIDINES AND PREPARATION AND USES THEREOF” (BioSplice Therapeutics, Inc., priority 2021, published 2025).

By EC50 is commonly meant the midpoint of the concentration-response curve.

This assay addresses recombinant DYRK1A kinase (Homo sapiens (Human), UniProt Q13627). Put plainly: DYRK1A kinase assay (Ser/Thr 18 peptide Z-lyte FRET assay). It is filed as biochemical. As to conditions: DYRK1A kinase activity; 15 μM ATP, 1 h room temperature; method text calls the value IC50. The protocol: Representative compounds were screened using the assay procedure for DYRK1A kinase activity as described below.
Each compound was dissolved in DMSO as a 10 mM stock and used to prepare compound source plates. Serial dilution (1:3, 11-point dose-response curves from 10 μM to 0.00016 μM) and compound transfer was performed using the ECHO 550 (Labcyte, Sunnyvale, CA) into 1536-well black-walled round bottom plates (Corning).
The DYRK1A kinase assay was run using the Ser/Thr 18 peptide Z-lyte assay kit according to manufacturer's instructions (Life Technologies—a Division of Thermo-Fisher). This is a non-radioactive assay using fluorescence resonance energy transfer (FRET) between coumarin and fluorescein to detect kinase activity which is represented as a ratio of coumarin emission/fluorescein emission.
Briefly, recombinant DYRK1A kinase, ATP and Ser/Thr peptide 18 were prepared in 1× Kinase buffer to final concentrations of 0.25 μg/mL, 15 μM, and 4 μM respectively. The mixture was allowed to incubate with the representative compounds for one hour at room temperature. All reactions were performed in duplicate. Unphosphorylated (“0% Control”) and phosphorylated (“100% control”) forms of Ser/Thr 18 served as control reactions. Additionally, an 11-point dose-response curve of Staurosporine (1 uM top) was run to serve as a positive compound control.
After incubation, Development Reagent A was diluted in Development Buffer then added to the reaction and allowed to further incubate for one hour at room temperature. The plate was read at Ex 400 Em […] to detect the coumarin signal and Ex 400 Em 520 to measure the signal (EnVision Multilabel Plate Reader, PerkinElmer).
The Emission ratio (Em) was calculated as a ratio of the coumarin (C) emission signal (at 445 nm)/Fluorescein (F) emission signal (at 520 nm). The percent phosphorylation was then calculated using the following formula: [1−((Em ratio×F100%)−C100%)/((C0%−C100%)+(Em ratio×(F100%−F0%)))]. Dose-response curves were generated, and inhibitory concentration (IC50) values were calculated using non-linear regression curve fit in the Dotmatics' Studies Software (Bishops Stortford, UK).
With `CN1CCN(c2ccc(CNc3ncc4c(-c5ccc6c(c5)CNC6=O)c[nH]c4n3)cn2)CC1` [Compound 10, 5-(2-(((6-(4-Methylpiperazin-1-yl)pyridin-3-yl)methyl)amino)-7H-pyrrolo [2,3-d]pyrimidin-5-yl)isoindolin-1-one], the EC50 turned out to be 96.8 nM.

Regarding `Cc1nc2ccc(-c3c[nH]c4nc(NCC(C)(C)F)ncc34)nc2s1` [Compound 54, N-(2-Fluoro-2-methylpropyl)-5-(2-methylthiazolo[5,4-b]pyridin-5-yl)-7H-pyrrolo[2,3-d]pyrimidin-2-amine], the concentration for a half-maximal effect (EC50) was 671 nM.

For `CN1CCN(c2ccc(Nc3ncc4c(-c5cc6cnccc6s5)c[nH]c4n3)cn2)CC1` [Compound 93, N-(6-(4-Methylpiperazin-1-yl)pyridin-3-yl)-5-(thieno[3,2-c]pyridin-2-yl)-7H-pyrrolo[2,3-d]pyrimidin-2-amine], the 50% effective concentration (EC50) is 6.4 nM.

For the molecule `c1cnc2sc(-c3c[nH]c4ncncc34)nc2c1` [Compound 98, 2-(7H-Pyrrolo[2,3-d]pyrimidin-5-yl)thiazolo[5,4-b]pyridine], the EC50 is 22.1 nM.

With `CCNc1ncc2c(-c3ccc4nccn4c3)c[nH]c2n1` [Compound 107, N-Ethyl-5-(imidazo[1,2-a]pyridin-6-yl)-7H-pyrrolo[2,3-d]pyrimidin-2-amine], the EC50 was determined as 1.6 nM.

Turning to `FC(F)(F)CNc1ncc2c(-c3ccc4nccn4c3)c[nH]c2n1` [Compound 114, 5-(Imidazo[1,2-a]pyridin-6-yl)-N-(2,2,2-trifluoroethyl)-7H-pyrrolo[2,3-d]pyrimidin-2-amine], the concentration for a half-maximal effect (EC50) worked out at 4.6 nM.

As to `Fc1cnc2ccc(-c3c[nH]c4nc(C5CC5)ncc34)cn12` [Compound 145, 2-Cyclopropyl-5-(3-fluoroimidazo[1,2-a]pyridin-6-yl)-7H-pyrrolo[2,3-d]pyrimidine], the EC50 amounted to 94.3 nM.

Consider `C[C@@H](Nc1ncc2c(-c3ccc4ncc(F)n4c3)c[nH]c2n1)C(F)(F)F` [Compound 158, (R)-5-(3-Fluoroimidazo[1,2-a]pyridin-6-yl)-N-(1,1,1-trifluoropropan-2-yl)-7H-pyrrolo[2,3-d]pyrimidin-2-amine], for which the EC50 came to 5.5 nM.

For `CC(C)CNc1ncc2c(-c3cc(F)c4nccn4c3)c[nH]c2n1` [Compound 196, 5-(8-Fluoroimidazo[1,2-a]pyridin-6-yl)-N-isobutyl-7H-pyrrolo[2,3-d]pyrimidin-2-amine], the EC50 is 60.5 nM.

On to `CC(C)(C)CNc1ncc2c(-c3cc(F)c4nccn4c3)c[nH]c2n1` [Compound 197, 5-(8-Fluoroimidazo[1,2-a]pyridin-6-yl)-N-neopentyl-7H-pyrrolo[2,3-d]pyrimidin-2-amine], for which the EC50 stood at 75.4 nM.

With `Fc1cc(-c2c[nH]c3nc(NCCC(F)(F)F)ncc23)cn2ccnc12` [Compound 204, 5-(8-Fluoroimidazo[1,2-a]pyridin-6-yl)-N-(3,3,3-trifluoropropyl)-7H-pyrrolo [2,3-d]pyrimidin-2-amine], the concentration for a half-maximal effect (EC50) is 6.6 nM.

For the molecule `Fc1cc(-c2c[nH]c3nc(NCC4CC4)ncc23)cn2ccnc12` [Compound 207, N-(Cyclopropylmethyl)-5-(8-fluoroimidazo[1,2-a]pyridin-6-yl)-7H-pyrrolo [2,3-d]pyrimidin-2-amine], the concentration giving a half-maximal response (EC50) worked out at 27.4 nM.

Regarding `CO[C@H]1CC[C@@H](Nc2ncc3c(-c4cc(F)c5nccn5c4)c[nH]c3n2)CC1` [Compound 216, 5-(8-Fluoroimidazo[1,2-a]pyridin-6-yl)-N-(cis-4-methoxycyclohexyl)-7H-pyrrolo[2,3-d]pyrimidin-2-amine], the concentration giving a half-maximal response (EC50) turned out to be 14.9 nM.

Regarding `CN1CCC(Nc2ncc3c(-c4cc(F)c5nccn5c4)c[nH]c3n2)CC1` [Compound 219, 5-(8-Fluoroimidazo[1,2-a]pyridin-6-yl)-N-(1-methylpiperidin-4-yl)-7H-pyrrolo[2,3-d]pyrimidin-2-amine], the half-maximal effective concentration (EC50) is 5.5 nM.

As for `Fc1cc(-c2c[nH]c3nc(NC4CCOCC4)ncc23)cn2ccnc12` [Compound 221, 5-(8-Fluoroimidazo[1,2-a]pyridin-6-yl)-N-(tetrahydro-2H-pyran-4-yl)-7H-pyrrolo[2,3-d]pyrimidin-2-amine], the EC50 is 23 nM.
